# According to patent US20100022483A1, “Substituted Tetracycline Compounds” (Paratek Pharmaceuticals, Inc., priority 2008, published 2010):
# Where two headings read alike, the source gives them in different places.
# Columns and labels:
# in vitro = type: cell-based; conditions: Chinese hamster, Cytotox. CHO-K1
# Experimental: (§1) COS-1 and CHO-K1 cell suspensions were prepared, seeded into 96-well tissue culture treated black-walled microtiter plates (density determined by cell line), and incubated overnight at 37° C., in 5% CO2 and approximately 95% humidity. The following day, serial dilutions of compound were prepared under sterile conditions and transferred to cell plates. Cell/Compound plates were incubated under the above conditions for 24 hours. Following the incubation period, media/compound was aspirated and 50 μl of resazurin (0.042 mg/ml in PBS w/Ca and Mg) is added. The plates were then incubated under the above conditions for 2 hours and then placed in the dark at room temperature for an additional 30 minutes. Fluorescence measurements were taken (excitation 535 nm, emission 590 nm). The IC50 (concentration of compound causing 50% growth inhibition) was then calculated. Table 3 includes IC50 data for several substituted tetracycline compounds.
# [1] = Mammalian cytotoxicity assay (resazurin), COS-1 cells; type: cell-based; conditions: African green monkey, read-out: Cytotox. COS-1
# Experimental: as §1
# gram positive bacteria = assay: In vitro anti-bacterial activity assay (broth dilution MIC), gram positive bacteria; type: cell-based, S. aureus; conditions: 18 h
# Text: (§2) Bacterial infections may be caused by a wide variety of gram positive and gram negative bacteria. Some of the compounds of the invention are useful as antibiotics against organisms which are resistant and/or sensitive to other tetracycline compounds. The antibiotic activity of the tetracycline compounds of the invention may by using the in vitro standard broth dilution method described in Waitz, J. A., CLSI, Document M7-A2, vol. 10, no. 8, pp. 13-20, 2nd edition, Villanova, Pa. (1990).
# (§3) The following assay was used to determine the efficacy of the tetracycline compounds against gram positive and gram negative bacteria. 2 mg of each compound was dissolved in 100 μl of DMSO. […] The tetracycline compound solutions were diluted to 50 μL volumes, with a test compound concentration of 0.098 μg/ml. Optical density (OD) determinations were made from fresh log-phase broth cultures of the test strains. Dilutions were made to achieve a final cell density of […] CFU/ml. At OD=1, cell densities for different genera were approximately:
# (§4) 50 μl of the cell suspensions were added to each well of microtiter plates. The final cell density was approximately 5×10^5 CFU/ml. These plates were incubated at 35° C. in an ambient air incubator for approximately 18 hours. The plates were read with a microplate reader and were visually inspected when necessary. The MIC was defined as the lowest concentration of the tetracycline compound that inhibits growth. Table 3 includes MIC data for several substituted tetracycline compounds.
# gram negative bacteria = assay: In vitro anti-bacterial activity assay (broth dilution MIC), gram negative bacteria; type: cell-based, E. coli
# Text: as §2, §3, §4
# 3T3 fibroblast cells = assay: In vitro phototoxicity assay (neutral red; UV light-treated vs dark control plates); type: cell-based; conditions: for Photo Toxicity UV Tox50: UV light 50 minutes; for Photo Toxicity Dark Tox50: dark control plate
# Experimental: 3T3 fibroblast cells were harvested and plated at a concentration of 1×10^5 cells/mL and the plates were incubated overnight at 37° C., in 5% CO2 and approximately 95% humidity. On the following day the medium was removed from the plates and replaced with Hanks' Balanced Salt Solution (HBSS). Compound dilutions were made in HBSS and added to the plates. For each compound tested, a duplicate plate was prepared that was not exposed to light as a control for compound toxicity. Plates were then incubated in a dark drawer (for controls), or under UV light (meter reading of 1.6-1.8 mW/cm^2) for 50 minutes. Cells were then washed with HBSS, fresh medium was added, and plates were incubated overnight as described above. The following day neutral red was added as an indicator of cell viability. The plates were then incubated for an additional 3 hours. Cells were then washed with HBSS and blotted on absorbent paper to remove excess liquid. A solution of 50% EtOH, 10% glacial acetic acid was added and after 20 minutes incubation the plate's absorbance at 535 nm was read using a Wallac Victor 5 spectrophotometer. The phototoxicity reflected the difference between the light-treated and control cultures. Table 3 includes phototoxicity (μM) data for several substituted tetracycline compounds.
# [2] = Staphylococcus aureus, S. aureus MRSA5, read-out: Median MIC's G+ S. aureus MRSA5
# [3] = Staphylococcus aureus, S. aureus RN450, read-out: Median MIC's G+ S. aureus RN450
# [4] = Streptococcus pneumoniae, S. pneumoniae 157E-Strep, read-out: Median MIC's G+ S. pneumoniae 157E-Strep
# [5] = Escherichia coli, 18 h, E. coli D1 209, read-out: Median MIC's G− E. coli D1 209
# [6] = Escherichia coli, 18 h, E. coli MG 1655, read-out: Median MIC's G− E. coli MG 1655
# [7] = Escherichia coli, ATCC25922, 18 h, E. coli ATCC 25922, read-out: Median MIC's G− E. coli ATCC 25922
# [8] = Pseudomonas aeruginosa, 18 h, P. aeruginosa K201 PAO6609, read-out: Median MIC's G− P. aeruginosa K201 PAO6609
SMILES,IC50 at 24 h (in vitro) [µM],IC50 at 24 h [1] [µM],MIC (gram positive bacteria; [2]) [µg/mL],MIC (gram positive bacteria; [3]) [µg/mL],MIC (gram positive bacteria; [4]) [µg/mL],MIC (gram negative bacteria; [5]) [µg/mL],Photo Toxicity UV Tox50 (3T3 fibroblast cells) [µM],Photo Toxicity Dark Tox50 (3T3 fibroblast cells) [µM],MIC (gram negative bacteria; [6]) [µg/mL],MIC (gram negative bacteria; [7]) [µg/mL],MIC (gram negative bacteria; [8]) [µg/mL]
COc1ccc(CNCc2ccc(-c3ccc(O)c4c3C[C@H]3C[C@H]5[C@H](N(C)C)C(O)=C(C(N)=O)C(=O)[C@@]5(O)C(O)=C3C4=O)cc2)cc1 (stereo in doubt) [AW],13.5,< 1.97,1,0.06,0.06,1,,,,,
CO/N=C/c1ccc(-c2ccc(O)c3c2C[C@H]2C[C@H]4[C@H](N(C)C)C(O)=C(C(N)=O)C(=O)[C@@]4(O)C(O)=C2C3=O)o1 (stereo in doubt) [AZ],3.04,< 2.44,1,0.13,0.06,64,>156.79,>156.79,,,
CN(C)[C@H]1C(O)=C(C(N)=O)C(=O)[C@@]2(O)C(O)=C3C(=O)c4c(O)ccc(-c5cccc(C(N)=O)c5)c4C[C@H]3C[C@@H]12 (stereo in doubt) [B],> 15.7,> 15.7,64,2,2,64,>156.64,>156.64,64,64,64
CN(C)CCNC(=O)c1cccc(-c2ccc(O)c3c2C[C@H]2C[C@H]4[C@H](N(C)C)C(O)=C(C(N)=O)C(=O)[C@@]4(O)C(O)=C2C3=O)c1 [AB],> 200,> 200,32,0.5,0.25,64,>200,>200,16,32,64
CN(C)C(=O)c1cccc(-c2ccc(O)c3c2C[C@H]2C[C@H]4[C@H](N(C)C)C(O)=C(C(N)=O)C(=O)[C@@]4(O)C(O)=C2C3=O)c1 [AC],> 9.4,> 37.6,16,0.25,,64,,,,,
CN(C)CCNC(=O)c1ccc(-c2ccc(O)c3c2C[C@H]2C[C@H]4[C@H](N(C)C)C(O)=C(C(N)=O)C(=O)[C@@]4(O)C(O)=C2C3=O)cc1 [AD],> 43.5,> 43.5,16,0.25,0.13,64,135.17,>140.2,8,16,64
CN(C)[C@@H]1C(O)=C(C(N)=O)C(=O)[C@@]2(O)C(O)=C3C(=O)c4c(O)ccc(-c5cccc(C(N)=O)c5)c4C[C@H]3C[C@@H]12 [AE],> 15.7,> 15.7,4,0.06,0.06,64,>156.64,>156.64,4,4,64
CN(C)[C@@H]1C(O)=C(C(N)=O)C(=O)[C@@]2(O)C(O)=C3C(=O)c4c(O)ccc(-c5ccc(NC(=O)CNC(C)(C)C)cc5)c4C[C@H]3C[C@@H]12 [AF],> 13.7,> 13.7,4,0.06,0.06,2,>137.36,>137.36,,,
COCCNCC(=O)c1ccc(O)c2c1C[C@H]1C[C@H]3[C@H](N(C)C)C(O)=C(C(N)=O)C(=O)[C@@]3(O)C(O)=C1C2=O [AG],> 158,> 158,64,4,4,64,>157.68,>157.68,32,32,64
